Key:
[1] = system: LLC/MK2 cells; assay: Cytotoxicity study (CellTiter 96 AQueous One) in LLC/MK2 cells; assay type: cell-based; details: LLC/MK2 cell viability at 120 h versus 48 h; in words
Method: (§1) The cytotoxicity of active compounds was tested on LLC-MK2, Vero, THP-1, HEK-293, HepG2 and C6/36 cell lines. Each cell line was seeded at 1 × 10^4 cells per well in 96-well plates and incubated overnight. The compounds were added at the indicated concentrations and the cells were incubated for 48 h, unless indicated otherwise. Cell viability was analyzed using CellTiter 96® AQueous One Solution Cell Proliferation Assay kit (Promega, Wisconsin-Madison, USA) according to manufacturer’s protocol. The plate was read at the A 450 in a VICTORTM × 3 microplate reader (PerkinElmer, Massachusetts, USA). Percent cell viability in compound-treated wells was calculated using reference DMSO-treated cells as a 100% cell viability control. The CC50 values of LLC/MK2 cells were calculated using nonlinear regression analysis. Results were reported as means and standard error of the means (SEM) of CC50 values of three independent experiments in which each drug concentration was tested in triplicate.

[2] = Cytotoxicity study (CellTiter 96 AQueous One) in HepG2 cells; assay type: cell-based; details: human, HepG2 cells, read-out: Cells viability (%, means ± SEM) HepG2
Method: as §1

[3] = system: DENV3 (16562); assay: Antiviral efficacy (EC50) in virus infected LLC/MK2 cells, plaque assay; assay type: cell-based, Dengue virus
Method: (§2) Compound at various concentrations were added to virus infected LLC/MK2 cells and viral titers were accessed by plaque titration of supernatants as previously described.
(§3) LLC/MK2 cells were seeded at 5 × 10^4 cells into each well of 24-well plate and incubated overnight at 37 °C under 5% CO2. Cells were infected with DENV2 at the multiplicity of infection (M.O.I.) of 0.1, unless indicated otherwise, for 1 h with gentle rocking every 15 min. Cells were washed with phosphate buffer saline (PBS) and incubated with 1 ml of MEM medium supplemented with 1% FBS as previously described. The compounds were prepared in dimethylsulfoxide (DMSO) at the indicated concentrations before addition to viral infected cells. Supernatants were collected after 5 day incubation and analyzed by plaque titration[9].
(§4) Compounds were prepared in DMSO at 8–12 different concentrations and added to virus infected cells as previously described. Supernatants were collected and the EC50 values were calculated from nonlinear regression analysis.

[4] = system: DENV4 (c0036); assay: as above; assay type: cell-based, Dengue virus
Method: as §2, §3, §4

[5] = system: ZIKV (SV0010/15); assay: as above; assay type: cell-based, Zika virus
Method: as §2, §3, §4

[6] = system: DENV2 infected C6/36 cells; assay: Fusion inhibition study in DENV2 infected C6/36 cells; assay type: cell-based, Dengue virus; details: 10 and 25 µM; M.O.I. of 0.02; in words
Method: We further explored whether the compound would block the viral infectivity by neutralization. We set up the attachment inhibition assay by incubating DENV2 with LLC/MK2 cells at 4 °C for 1 h and FV13 was added before adsorption (pre-attachment), simultaneous with adsorption (co-attachment), and after adsorption (post-attachment) (Fig. 5A). DMSO was used as a mock treatment and added in parallel to FV13 to the experiment. Cells were incubated until cytopathic effects appeared under microscope (Fig. 5B). Supernatants and cells were then analyzed by plaque titration (Fig. 5C) and RT-qPCR (Fig. 5D), respectively. […] Therefore, the major targets of FV13 inhibition appear to function after attachment, possibly at the fusion or translation steps. […] (Supplementary 1). Therefore, fusion was unlikely the major target of FV13. We concluded that one of the major targets of FV13 functions early after infection and attachment and fusion are not critically affected. Flavivirus translation initiates within 1 to 5 hpi[26].
The assay protocol was adapted from Ichiyama et al., 2013 and Poh et al., 20091,2. C6/36 cells were seeded at 2x10^5 cells per well in 24-well plate and incubated overnight. Cells were infected with DENV2 (M.O.I. of 0.02) at 28 °C for 1 h with gentle rocking every 15 min. […] The cells were closely monitored under microscope. […]

**Q.** Which “effect of long term incubation on cytotoxicity” value [1] does the source give for O=c1cc(-c2ccccc2)oc2c(Br)c(O)c(Br)c(O)c12 [FV13, 6,8-dibromo-5,7-dihydroxyflavone] here?
**A.** similarly non-toxic at both 48 and 120 h

**Q.** And the viability at 48 h, 10 µM ([2]; 10 μM)?
**A.** 85.8 ± 4.7%

**Q.** And the viability at 48 h, 25 µM ([2]; 25 μM)?
**A.** 84.6 ± 2.79%

**Q.** And the “S.I. Selectivity index (CC50/EC50)” value ([3]; DENV3 (16562), CC50 in LLC/MK2)?
**A.** 19.22

**Q.** What about the EC50 ([3]; Dengue virus, DENV3, LLC-MK2) of the same compound?
**A.** 2.32 ± 1.46 µM

**Q.** What about the “S.I. Selectivity index (CC50/EC50)” value ([4]; DENV4 (c0036), CC50 in LLC/MK2) of the same compound?
**A.** 25.12

**Q.** What about the EC50 ([4]; Dengue virus, DENV4, LLC-MK2) of the same compound?
**A.** 1.78 ± 0.72 µM

**Q.** And the “S.I. Selectivity index (CC50/EC50)” value ([5]; CC50 in LLC/MK2)?
**A.** 27.02

**Q.** And the EC50 ([5]; Zika virus, LLC/MK2, plaque assay in 24-well plates)?
**A.** 1.65 ± 0.86 µM

**Q.** And the “fusion inhibition (number of fused cells or syncytial phenomenon)” value [6]?
**A.** no difference in the number of fused cells or syncytial phenomenon

Reference: article PMC5651866, “Halogenated Chrysins Inhibit Dengue and Zika Virus Infectivity” (Scientific Reports, 2017)
